Results reported in publication PMC4393269, “Carvacrol Codrugs: A New Approach in the Antimicrobial Plan” (PLoS ONE, 2015).
≈ marks a conversion by molar mass, not a printed value.

Tests used:
Format in all cases: cell-based
[1] = system: P. aeruginosa ATCC 9027; assay: Broth microdilution MIC/MBC on planktonic cells; conditions: Pseudomonas aeruginosa, ATCC9027
Method: (§1) Two Gram-positive (S. aureus ATCC 29213 and S. epidermidis ATCC 35984) and two Gram-negative (E. coli ATCC 8739 and P. aeruginosa ATCC 9027) strains, and one fungal strain (C. albicans ATCC 10231) were used for the detection of antibacterial activity of carvacrol, NAC, Ac-Cys(Allyl)-OH, and carvacrol codrugs 1–10. All tested compounds were dissolved in 20% DMSO to prepare the stock solution (100 mg/mL). The final concentration of DMSO in each well appeared to be not toxic for all studied microorganisms, as confirmed by the solvent control test included in the study.
(§2) The effects of carvacrol codrugs 1–10 and reference compounds on planktonic cells were evaluated by Minimum Inhibitory Concentration (MIC) and Minimum Bactericidal Concentration (MBC) determination using the broth microdilution method according to EUCAST guidelines. Bacterial suspensions, grown in Mueller–Hinton Broth (MHB) at logarithmic phase, were incubated on microtiter plates at a concentration of 5 x 10^5 CFU/mL, with several dilutions (0.07–40 mg/mL) for 24 h at 37°C. The MIC was defined as the lowest concentration of substances giving a complete inhibition of visible growth in comparison with a control well, and the MBC was determined as the lowest concentration at which no bacterial growth occurred on Mueller–Hinton Agar plates.
(§3) Data were obtained from at least three independent experiments performed in duplicate. The susceptibility of the bacterial strains against ciprofloxacin was used as an internal standard during MIC determinations.

[2] = system: S. epidermidis ATCC 35984; assay: Broth microdilution MIC/MBC on planktonic cells; conditions: Staphylococcus epidermidis, ATCC35984
Method: as §1, §2, §3

[3] = system: E. coli ATCC 8739; assay: Broth microdilution MIC/MBC on planktonic cells; conditions: Escherichia coli, ATCC8739
Method: as §1, §2, §3

[4] = system: S. aureus ATCC 29213; assay: Broth microdilution MIC/MBC on planktonic cells; conditions: Staphylococcus aureus, ATCC29213
Method: as §1, §2, §3

[5] = system: P. aeruginosa ATCC 9027; assay: Antibiofilm assay on established biofilm (BIC/BEC)
Method: (§4) The efficacy on established biofilm was evaluated by determining Biofilm Inhibitory Concentration (BIC) and Biofilm Eradication Concentration (BEC) according to the method described by Johnson et al. with some modifications. Bacterial suspensions, grown in Tryptic soy broth supplemented with 0.5% (v/v) glucose at logarithmic phase, as well as C. albicans grown in RPMI 1640 plus 2% glucose, were incubated on flat-bottomed microtiter plates at a concentration of 5 x 10^5 CFU/mL. After 24 h of incubation at 37°C, the planktonic cells were gently removed and wells were washed with sterile phosphate-buffered saline solution (PBS) pH 7.3 and filled with carvacrol, carvacrol codrug 4, Ac-Cys(Allyl)-OH with dilutions ranging from the MIC values to a maximum concentration of 50 mg/mL. The OD600 was measured at time 0 and after incubation for 24 h at 37°C. The BIC values were determined as the lowest concentrations where no growth occurred in the supernatant fluid, confirmed by no increase in optical density compared with the initial reading. The BEC values were determined as the lowest concentrations at which no bacterial growth occurred on Tryptic soy agar for bacteria and on Sabouraud agar for C. albicans. Data were obtained from at least three independent experiments performed in duplicate.

[6] = system: S. epidermidis ATCC 35984; assay: Antibiofilm assay on established biofilm (BIC/BEC)
Method: as §4

[7] = system: E. coli ATCC 8739; assay: Antibiofilm assay on established biofilm (BIC/BEC)
Method: as §4

[8] = system: S. aureus ATCC 29213; assay: Antibiofilm assay on established biofilm (BIC/BEC); conditions: S. aureus ATCC 29213 established biofilm
Method: as §4

[9] = system: C. albicans ATCC 10231; assay: Antibiofilm assay on established biofilm (BIC/BEC)
Method: as §4

[10] = system: C. albicans ATCC 10231; assay: Broth microdilution MIC/MFC; conditions: Candida albicans, ATCC10231
Method: as §1
The MIC detection of C. albicans ATCC 10231 was performed using the broth microdilution method according to EUCAST guidelines in RPMI 1640 plus 2% glucose with a final inoculum of 1–5 x 10^5 CFU/mL for 24–48 h at 37°C. The Minimum Fungicidal Concentration (MFC) was determined as the lowest concentration of substances at which no fungal growth occurred on Sabouraud agar plates.
as §3

[11] = system: Gram positive and Gram negative tested bacteria; assay: Broth microdilution MIC/MBC, range over the bacterial panel; conditions: bacterial strains of Table 1
Method: as §1
as §2, with “plates. […]” for “plates.”

Q: With `C=CCSC[C@H](NC(C)=O)C(=O)O` [Ac-Cys(Allyl)-OH, N-Ac-Cys(Allyl)-OH] as the compound, how does the MIC ([1]; P. aeruginosa ATCC 9027, 24 h at 37°C, read-out: MIC) read?
A: Its MIC is 10000 µg/mL (≈ 49.2 mM).

Q: What about the MBC ([1]; P. aeruginosa ATCC 9027, read-out: MBC) of the same compound?
A: Its MBC is 10000 µg/mL (≈ 49.2 mM).

Q: And the MIC ([2]; S. epidermidis ATCC 35984, 24 h at 37°C, read-out: MIC)?
A: The MIC was 5000 µg/mL (≈ 24.6 mM).

Q: And the MBC ([2]; S. epidermidis ATCC 35984, read-out: MBC)?
A: The MBC was 5000 µg/mL (≈ 24.6 mM).

Q: And the MIC ([3]; E. coli ATCC 8739, 24 h at 37°C, read-out: MIC)?
A: The MIC was 2500 µg/mL (≈ 12.3 mM).

Q: What about the MBC ([3]; E. coli ATCC 8739, read-out: MBC) of the same compound?
A: The MBC was 2500 µg/mL (≈ 12.3 mM).

Q: What about the MIC ([4]; S. aureus ATCC 29213, 24 h at 37°C, read-out: MIC) of the same compound?
A: The MIC was 5000 µg/mL (≈ 24.6 mM).

Q: What about the MBC ([4]; S. aureus ATCC 29213, read-out: MBC) of the same compound?
A: The MBC was 5000 µg/mL (≈ 24.6 mM).

Q: And the “BEC as multiple of MIC” value ([5]; P. aeruginosa ATCC 9027)?
A: Its value is 2MIC.

Q: What about the BEC ([5]; P. aeruginosa ATCC 9027 established biofilm) of the same compound?
A: The BEC was 20 mg/mL.

Q: What about the BIC ([5]; P. aeruginosa ATCC 9027 established biofilm, 24 h) of the same compound?
A: The BIC was 10 mg/mL.

Q: And the “BEC as multiple of MIC” value ([6]; S. epidermidis ATCC 35984)?
A: The value was 4MIC.

Q: And the “BIC as multiple of MIC” value ([6]; S. epidermidis ATCC 35984)?
A: Its value is 4MIC.

Q: What about the BEC ([6]; S. epidermidis ATCC 35984 established biofilm) of the same compound?
A: Its BEC is 20 mg/mL.

Q: And the BIC ([6]; S. epidermidis ATCC 35984 established biofilm, 24 h)?
A: Its BIC is 20 mg/mL.

Q: And the “BEC as multiple of MIC” value ([7]; E. coli ATCC 8739)?
A: The value was 8MIC.

Q: And the “BIC as multiple of MIC” value ([7]; E. coli ATCC 8739)?
A: The value was 2MIC.

Q: And the BEC ([7]; E. coli ATCC 8739 established biofilm)?
A: Its BEC is 20 mg/mL.

Q: And the BIC ([7]; E. coli ATCC 8739 established biofilm, 24 h)?
A: The BIC was 5 mg/mL.

Q: And the BEC [8]?
A: The BEC was 20 mg/mL.

Q: And the BIC ([8]; 24 h)?
A: Its BIC is 10 mg/mL.

Q: What about the “BEC as multiple of MIC” value ([9]; C. albicans ATCC 10231) of the same compound?
A: The value was 2MIC.

Q: And the “BIC as multiple of MIC” value ([9]; C. albicans ATCC 10231)?
A: Its value is 2MIC.

Q: What about the BEC ([9]; C. albicans ATCC 10231 established biofilm) of the same compound?
A: The BEC was 5 mg/mL.

Q: What about the BIC ([9]; C. albicans ATCC 10231 established biofilm, 24 h) of the same compound?
A: The BIC was 5 mg/mL.

Q: And the MIC ([10]; C. albicans ATCC 10231, 24–48 h at 37°C, read-out: MIC)?
A: The MIC was 2500 µg/mL (≈ 12.3 mM).

Q: What about the MFC ([10]; C. albicans ATCC 10231, read-out: MFC) of the same compound?
A: Its MFC is 2500 µg/mL (≈ 12.3 mM).

Q: What about the “MIC values (range over strains)” value [11] of the same compound?
A: Its value is 2500 to 10000 µg/mL.
